According to article PMC8226474, “Design, Syntheses, and Bioevaluations of Some Novel N^2-Acryloylbenzohydrazides as Chemostimulants and Cytotoxic Agents” (Medicines, 2021):
Several values for one entry are separate records, joined by “and”; a condition that tells them apart may be missing. Equal entries are not always repeated. Where two headings read alike, the source gives them in different places.

What was measured:
MDA-MB-231 cells = assay: Cytotoxicity assay, MDA-MB-231 breast cancer cells; assay type: cell-based, human; conditions: Homo sapiens, MDA-MB-231, 48 h, read-out: percentage inhibition of MDA-MB-231 cells
Excerpt: (§1) Evaluation of the cytotoxic properties of the compounds presented in Table 1, Table 2, Table 3 and Table 4 was undertaken using the procedure outlined in [7]. In brief, the HCT 116 cells were obtained from the ATCC and cultured in McCoy’s 5A medium. The CRL 1790 cells were obtained from the ATCC and cultured in Minimum Essential Medium. The MCF-7 and MDA-MBA-231 cells were obtained from the Saskatchewan Cancer Agency and cultured in DMEM. In each assay the culture medium was supplemented with 10% fetal bovine serum and 1% penicillin–streptomycin antibiotics. The time of the bioassays was 48 h, unless indicated otherwise. All determinations were carried out in triplicate on three different occasions.

MCF-7 cells = assay: Cytotoxicity assay, MCF-7 breast cancer cells; assay type: cell-based, human; conditions: for inhibition at 10 µM / inhibition at 100 µM / IC50: Homo sapiens, MCF7, 48 h; for inhibition at 10 µM / inhibition at 100 µM: read-out: percentage inhibition of MCF-7 cells; for IC50 / SI (selectivity index): Table 2; for IC50: read-out: Neoplastic Cells IC50, MCF-7; for SI (selectivity index): IC50 CRL 1790 / IC50 MCF-7
Excerpt: as §1

HCT 116 cells [1] = assay: Cytotoxicity assay, HCT 116 colon cancer cells; assay type: cell-based, human; conditions: for inhibition at 10 µM / inhibition at 100 µM / IC50: Homo sapiens, HCT-116, 48 h; for inhibition at 10 µM / inhibition at 100 µM: read-out: percentage inhibition of HCT 116 cells; for SI (selectivity index): IC50 CRL 1790 / IC50 HCT 116
Excerpt: as §1

CRL 1790 cells = assay: Cytotoxicity assay, non-malignant CRL 1790 colon cells; assay type: cell-based; conditions: Homo sapiens, 48 h
Excerpt: as §1

HCT 116 cells [2] = assay: Chemosensitization of HCT 116 cells: 1m for 24 h, then 2a or 5-FU for a further 24 h; assay type: cell-based, human; conditions: for Reduction in Live Cells % 1m (48 h): DMSO figure minus compound figure
Excerpt: as §1
The next phase of the investigation was to determine whether a representative compound in series 1 chemosensitizes HCT 116 cells to a 3,5-bis(benzylidene)-4-piperidone 2a. […] The colon cancer cells were incubated for 24 h with 1m, and then 2a was added and the incubation was continued for a further 24 h. Different concentrations of both 1m and 2a were employed, and the results are presented as entries 1–12 in Table 3. In addition, the effects of each of 1m, 2a, and 5-FU on HCT 116 cells (which are necessary for the evaluation of whether chemosensitivity occurs) were recorded, and are presented as entries 13–20 in Table 3.
The concentration of 1m in combination 4 is 5 µM, which after 48 h causes a percentage reduction of live cells to 86% (DMSO figure after 48 h, line 20) minus 75% (48 h, line 13), or 11%.
The concentration of 2a in combination 4 is 0.2 µM. This combination leads to a reduction of the percentage of live cells to 91% (DMSO figure after 24 h, line 20) minus 69%, or 22%.
The percentage reduction in live cells caused by a combination of 1m (5 µM) and 2a (0.2 µM), in the absence of chemosensitization, is 11% plus 22%, or 33%.
However, the percentage reduction in cells as indicated on line 4 is 86% (DMSO figure after 48 h) minus 12% (line 4, 48 h figure), or 74%.

HCT 116 cells [3] = assay: Mitochondrial membrane potential of HCT 116 cells (TMRE dye); assay type: cell-based, human; conditions: IC50 concentration towards HCT 116, 48 h, Figure 4
Excerpt: The method of Crowley et al. was employed in order to ascertain the effects of 1m, 7a, e, g, and 5-FU on the mitochondrial membrane potential of HCT 116 cells.
The decision was made to experiment with another method for determining the effect of compounds on the MMP. In this assay, the dye used was tetramethylrhodamine ethyl ester (TMRE), which can be found in the mitochondria of healthy cells. However, in apoptotic cells, the dye is released into the cytosol, leading to a decrease in the fluorescence signal.

HCT 116 cells [4] = assay: ROS levels in HCT 116 cells (DCF-DA dye); assay type: cell-based, human; conditions: IC50 concentration towards HCT 116; DCF-DA fluorescence; Figure 5
Description: In this assay, the dye 2,7-dichlorofluorescein diacetate (DCF-DA) was used, and the effects of 1m, 7a, e, g, and 5-FU on the ROS levels in HCT 116 cells were determined by the method of [11].
The evaluation of 1m, […], e, and g for their capacity to increase the concentration of ROS in HCT 116 cells used 2′,7′-dichlorofluorescein diacetate. This dye is deacetylated in cells, and is converted into a non-fluorescent compound that reacts with ROS to form 2′,7′-dichlorofluorescein, which is fluorescent.

[5] = Table 2, read-out: Non-Malignant CRL 1790 Cells IC50
[6] = Table 2, read-out: Neoplastic Cells IC50, HCT 116
[7] = Table 4, read-out: IC50 HCT 116
[8] = ratio of IC50 values towards HCT 116 cells
[9] = Table 4, read-out: IC50 CRL 1790

Structure (SMILES) | inhibition at 10 µM (MDA-MB-231 cells) [%] | inhibition at 100 µM (MDA-MB-231 cells) [%] | inhibition at 10 µM (MCF-7 cells) [%] | inhibition at 100 µM (MCF-7 cells) [%] | inhibition at 10 µM (HCT 116 cells [1]) [%] | inhibition at 100 µM (HCT 116 cells [1]) [%] | IC50 (CRL 1790 cells; [5]) [µM] | melting point [°C] | effect on mitochondrial membrane potential of HCT 116 cells (HCT 116 cells [3]) | effect on ROS levels in HCT 116 cells (HCT 116 cells [4]) | IC50 (HCT 116 cells [1]; [7]) [nM] | IC50 (CRL 1790 cells; [9]) [µM] | SI (selectivity index) (HCT 116 cells [1]; Table 4) | also measured
C=CC(=O)NNC(=O)c1ccccc1C [1j, N^2-Acryloyl-2-methylbenzohydrazide] | -2.64 ± 2.37 | 46.8 ± 3.63 | 53.3 ± 3.07 | > 100 | 10.4 ± 1.61 | 62.1 ± 2.48 | > 100 | 151 to 153 |  |  |  |  |  | IC50 (MCF-7 cells): 9.14 ± 1.31 µM; SI (selectivity index) (MCF-7 cells): >10.9
C=CC(=O)NNC(=O)c1ccc(C)cc1 [1k, N^2-Acryloyl-4-methylbenzohydrazide] | -8.78 ± 1.52 | 74.7 ± 2.96 | 55.3 ± 3.05 | > 100 | 11.5 ± 2.99 | > 100 | > 100 | 157 to 160 |  |  |  |  |  | IC50 (MCF-7 cells): 5.54 ± 0.51 µM; SI (selectivity index) (MCF-7 cells): >18.1
C=CC(=O)NNC(=O)c1ccc(OC)c(OC)c1 [1m, N^2-Acryloyl-3,4-dimethoxylbenzohydrazide] | -15.9 ± 1.96 | 50.5 ± 1.42 | -16.1 ± 3.51 | > 100 | 46.9 ± 2.55 | 97.9 ± 1.92 | > 100 | 163 to 165 | only 7e reduces the electrochemical potential of the mitochondria | increase the fluorescence intensity |  |  |  | Reduction in Live Cells % 1m (48 h) (HCT 116 cells [2]; 1m 5 µM alone, 48 h): 11%; Reduction in Live Cells % 1m (48 h) (HCT 116 cells [2]; 1m 10 µM alone, 48 h): 29%; Reduction in Live Cells % 1m (48 h) (HCT 116 cells [2]; 1m 15 µM alone, 48 h): 54%; chemosensitization of HCT 116 cells (HCT 116 cells [2]; 1m 24 h before the cytotoxin, certain concentrations): sensitizes HCT 116 cells to the potent cytotoxin 2a, and also to the established anticancer drug 5-FU; Live Cells % (HCT 116 cells [2]; entry 13: 1m 5 µM alone, 24 h): 88 ± 2.82%; Live Cells % (HCT 116 cells [2]; entry 13: 1m 5 µM alone, 48 h): 75% and 75 ± 4.89%; Live Cells % (HCT 116 cells [2]; entry 14: 1m 10 µM alone, 24 h): 67 ± 1.67%; Live Cells % (HCT 116 cells [2]; entry 14: 1m 10 µM alone, 48 h): 57 ± 1.76%; Live Cells % (HCT 116 cells [2]; entry 15: 1m 15 µM alone, 24 h): 61 ± 3.49%; Live Cells % (HCT 116 cells [2]; entry 15: 1m 15 µM alone, 48 h): 32 ± 0.94%; IC50 (HCT 116 cells [1]; [6]): 15300 ± 420 nM; SI (selectivity index) (HCT 116 cells [1]; Table 2): >6.54
CCC(=O)NNC(=O)c1ccccc1 [6a, N^2-Propionylbenzohydrazide] | -25.3 ± 1.82 | -11.6 ± 2.52 | -19.6 ± 3.66 | -5.69 ± 2.54 | -10.5 ± 2.93 | 9.35 ± 2.53 | > 100 | 106 to 107 |  |  |  |  |  | IC50 (HCT 116 cells [1]; [6]): > 100000 nM; SI (selectivity index) (HCT 116 cells [1]; Table 2): ~1.00
O=C(CCN1CC(=Cc2ccccc2)C(=O)C(=Cc2ccccc2)C1)NNC(=O)c1ccccc1 [7a, 3,5-Bis(benzylidene)-1-[3-(phenylcarbonylaminoamino)-3-oxo-1-propyl]-4-piperidone] |  |  |  |  |  |  |  | 154 to 156 | only 7e reduces the electrochemical potential of the mitochondria | increase the fluorescence intensity | 1380 ± 250 | 12.3 ± 1.09 |  | times more potent than 1a (HCT 116 cells [1]; [8]): 26.7 times
COc1ccc(C(=O)NNC(=O)CCN2CC(=Cc3ccc(F)cc3)C(=O)C(=Cc3ccc(F)cc3)C2)cc1OC [7d, 3,5-Bis(4-fluorobenzylidene)-1-[3-(3,4-dimethoxyphenylcarbonylaminoamino)-3-oxo-1-propyl]-4-piperidone] |  |  |  |  |  |  |  | 198 to 200 |  |  | 3820 ± 110 | 11.4 ± 2.22 | 2.99 | 
COc1ccc(C(=O)NNC(=O)CCN2CC(=Cc3ccc([N+](=O)[O-])cc3)C(=O)C(=Cc3ccc([N+](=O)[O-])cc3)C2)cc1OC [7e, 3,5-Bis(4-nitrobenzylidene)-1-[3-(3,4-dimethoxyphenylcarbonylaminoamino)-3-oxo-1-propyl]-4-piperidone] |  |  |  |  |  |  |  | 153 to 158 | reduces the electrochemical potential of the mitochondria | increase the fluorescence intensity | 280 ± 10 | 4.57 ± 0.53 | 16.3 | times more potent than 5-FU (HCT 116 cells [1]; [8]): 14.7 times; times the antineoplastic activity of melphalan (HCT 116 cells [1]; [8]): 119 times
COc1ccc(C=C2CN(CCC(=O)NNC(=O)c3ccc(OC)c(OC)c3)CC(=Cc3ccc(OC)cc3)C2=O)cc1 [7f, 3,5-Bis(4-methoxybenzylidene)-1-[3-(3,4-dimethoxyphenylcarbonylaminoamino)-3-oxo-1-propyl]-4-piperidone] |  |  |  |  |  |  |  | 175 to 178 |  |  | 2870 ± 230 | 11.1 ± 0.52 | 3.86 | 
COc1ccc(C(=O)NNC(=O)CCN2CC(=Cc3ccc(C)cc3)C(=O)C(=Cc3ccc(C)cc3)C2)cc1OC [7g, 3,5-Bis(4-methylbenzylidene)-1-[3-(3,4-dimethoxyphenylcarbonylaminoamino)-3-oxo-1-propyl]-4-piperidone] |  |  |  |  |  |  |  | 190 to 192 | only 7e reduces the electrochemical potential of the mitochondria | increase the fluorescence intensity | 1940 ± 180 | 9.24 ± 0.52 | 4.76 | 
